The term IC50 denotes the concentration needed to halve the response being measured.

Structures are written as SMILES.

The values that follow come from patent US20100168079A1 (priority 2008, published 2010).

The target in this experiment is T1, human S1P1 receptors (Homo sapiens, UniProt P21453).
T1 construct: myc (N); expressed in transfected cells; host or cells: HeLa (human cervix carcinoma, ATCC CCL2), HeLa-S1P1/Gα16 cell clone 1
In words: Human S1P1 Receptor Calcium FLIPR Antagonist Assay (HeLa Gα16 S1P1). Conditions: relative antagonism of Ca2+ signal evoked by probing agonist GNF-AC-1 at EC80; HeLa-S1P1/Gα16 cells. The class given is cell-based. As for the experimental part: Human S1P1 Receptor Calcium FLIPR Antagonist Assay
The cells are plated in 384 well black plates (10′000 cells per well). […] After washing, the cells are transferred to the FLIPR. The test compounds are added at different concentrations […]) in HBSS in the presence of 0.1% BSA and changes in fluorescence are recorded (indication of agonism). The probing agonist is added 20-30 minutes afterwards to the wells at a concentration giving 80% of the maximal activity (EC80). After each addition, time points are collected as follows: 20 time points (2 seconds) before the addition of the agonist (Fmin) and 60 time points (1 or 2 seconds) after the addition of the probing agonist. This allows the determination of the maximal fluorescence (Fmax). The ratio (Fmax-Fmin)/Fmin is plotted against the log of the concentration of the test compounds and the IC50 (relative antagonism) is calculated using the XLfit-4 software. […] A concentration-response curve of the probing agonist is determined on each plate in parallel.

T1 sequence (P21453 whole entry): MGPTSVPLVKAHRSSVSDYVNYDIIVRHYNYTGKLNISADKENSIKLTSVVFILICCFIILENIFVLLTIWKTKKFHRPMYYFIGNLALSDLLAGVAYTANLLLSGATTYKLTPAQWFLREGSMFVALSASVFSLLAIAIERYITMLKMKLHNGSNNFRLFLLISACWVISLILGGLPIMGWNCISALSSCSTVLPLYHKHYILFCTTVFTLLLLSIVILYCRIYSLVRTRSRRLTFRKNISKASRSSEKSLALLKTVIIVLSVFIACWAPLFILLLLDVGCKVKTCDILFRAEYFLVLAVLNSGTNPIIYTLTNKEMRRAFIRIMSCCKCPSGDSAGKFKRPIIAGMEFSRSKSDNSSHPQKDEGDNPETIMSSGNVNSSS

As to `COc1ccc(C(C)Nc2cccc(-c3cc(C)c(C(=O)N[C@@H](C)C(=O)O)c(C)c3)c2)cc1Cl` (stereo partly drawn) [Example 1, (S)-2-({3′-[1-(3-Chloro-4-methoxy-phenyl)-ethylamino]-3,5-dimethyl-biphenyl-4-carbonyl}-amino)-propionic acid], the half-maximal inhibitory concentration (IC50) stood at 2 nM.

On to `CCC(Nc1cccc(-c2cc(C)c(C(=O)N[C@@H](C)C(=O)O)c(C)c2)c1)c1ccc(Cl)c(C)c1` (stereo partly drawn) [Example 5, (S)-2-({3′-[1-(4-Chloro-3-methyl-phenyl)-propylamino]-3,5-dimethyl-biphenyl-4-carbonyl}-amino)-propionic acid], for which the IC50 was determined as 2 nM.

As to `Cc1cc(-c2cccc(NC(C)c3ccc(Cl)c(F)c3)c2)cc(C)c1C(=O)N[C@@H](C)C(=O)O` (stereo partly drawn) [Example 9, (S)-2-({3′-[1-(4-Chloro-3-fluoro-phenyl)-ethylamino]-3,5-dimethyl-biphenyl-4-carbonyl}-amino)-propionic acid], the IC50 was 3 nM.

Regarding `Cc1cc(-c2cccc(NC(C)c3ccc(Cl)c(Cl)c3)c2)cc(C)c1C(=O)N[C@@H](C)C(=O)O` (some centres unmarked) [Example 10], the IC50 turned out to be 2 nM.

For `Cc1ccc(C(C)Nc2cccc(-c3cc(C)c(C(=O)N[C@@H](C)C(=O)O)c(C)c3)c2)cc1C` (stereo partly drawn) [Example 11, (S)-2-({3′-[1-(3,4-Dimethylphenyl)-ethylamino]-3,5-dimethyl-biphenyl-4-carbonyl}-amino)-propionic acid], the IC50 worked out at 4 nM.

For the compound `Cc1cc(C(C)Nc2cccc(-c3cc(C)c(C(=O)N[C@@H](C)C(=O)O)c(C)c3)c2)c(C)cc1Cl` (stereo partly drawn) [Example 13, (S)-2-({3′-[1-(4-Chloro-2,5-dimethyl-phenyl)-ethylamino]-3,5-dimethyl-biphenyl-4-carbonyl}-amino)-propionic acid], the concentration for half-maximal inhibition (IC50) is 5 nM.

In the case of `Cc1cc(-c2cccc(NC(C)c3ccc(Cl)c(C(F)(F)F)c3)c2)cc(C)c1C(=O)N[C@@H](C)C(=O)O` (some centres unmarked) [Example 14], the IC50 worked out at 4 nM.

Consider `COc1cc(C(C)Nc2cccc(-c3cc(C)c(C(=O)N[C@@H](C)C(=O)O)c(C)c3)c2)ccc1F` (stereo partly drawn) [Example 15, (S)-2-({3′-[1-(4-Fluoro-3-methoxy-phenyl)-ethylamino]-3,5-dimethyl-biphenyl-4-carbonyl}-amino)-propionic acid], for which the IC50 was 2 nM.

With `Cc1cc(C(C)Nc2cccc(-c3cc(C)c(C(=O)N[C@@H](C)C(=O)O)c(C)c3)c2)c(F)cc1Cl` (stereo partly drawn) [Example 16, (S)-2-({3′-[1-(4-Chloro-2-fluoro-5-methyl-phenyl)-ethylamino]-3,5-dimethyl-biphenyl-4-carbonyl}-amino)-propionic acid], the IC50 came to 2 nM.

With `Cc1cc(-c2cccc(NC(C)c3ccc(F)c(OC(F)(F)F)c3)c2)cc(C)c1C(=O)N[C@@H](C)C(=O)O` (stereo partly drawn) [Example 17, (S)-2-({3′-[1-(4-Fluoro-3-trifluoromethoxy-phenyl)-ethylamino]-3,5-dimethyl-biphenyl-4-carbonyl}-amino)-propionic acid], the half-maximal inhibitory concentration (IC50) was determined as 5 nM.

Consider `COc1ccc(C(C)Nc2cccc(-c3cc(C)c(C(=O)N[C@@H](C)C(=O)O)c(C)c3)c2)cc1F` (stereo partly drawn) [Example 18, (S)-2-({3′-[1-(3-Fluoro-4-methoxy-phenyl)-ethylamino]-3,5-dimethyl-biphenyl-4-carbonyl}-amino)-propionic acid], for which the IC50 was found to be 4 nM.

In the case of `Cc1cc(F)cc(C(C)Nc2cccc(-c3cc(C)c(C(=O)N[C@@H](C)C(=O)O)c(C)c3)c2)c1` (stereo partly drawn) [Example 19, (S)-2-({3′-[1-(3-Fluoro-5-methyl-phenyl)-ethylamino]-3,5-dimethyl-biphenyl-4-carbonyl}-amino)-propionic acid], the half-inhibitory concentration (IC50) came out at 2 nM.

In the case of `Cc1cc(C(C)Nc2cccc(-c3cc(C)c(C(=O)N[C@@H](CO)C(=O)O)c(C)c3)c2)ccc1Cl` (stereo partly drawn) [Example 21, (S)-2-({3′-[1-(4-Chloro-3-methyl-phenyl)-ethylamino]-3,5-dimethyl-biphenyl-4-carbonyl}-amino)-3-hydroxy-propionic acid], the IC50 was 2 nM.

On to `CCC(Nc1cccc(-c2cc(C)c(C(=O)NC3(C(=O)O)CC3)c(C)c2)c1)c1ccc(Cl)c(C)c1` (centres unmarked) [Example 27, 1-({3′-[1-(4-Chloro-3-methyl-phenyl)-propylamino]-3,5-dimethyl-biphenyl-4-carbonyl}-amino)-cyclopropanecarboxylic acid], for which the IC50 is 2 nM.

Turning to `Cc1cc(C)cc(C(C)Nc2cccc(-c3cc(C)c(C(=O)N[C@@H](C)C(=O)O)c(C)c3)c2)c1` (stereo partly drawn) [Example 28, (S)-2-({3′-[1-(3,5-Dimethyl-phenyl)-ethylamino]-3,5-dimethyl-biphenyl-4-carbonyl}-amino)-propionic acid], the IC50 turned out to be 3 nM.

Regarding `Cc1cc(C(C)Nc2cccc(-c3cc(C)c(C(=O)N[C@@H](C)C(=O)O)c(C)c3)c2)cc(C)c1Cl` (stereo partly drawn) [Example 29, (S)-2-({3′-[1-(4-Chloro-3,5-dimethyl-phenyl)-ethylamino]-3,5-dimethyl-biphenyl-4-carbonyl}-amino)-propionic acid], the IC50 was 2 nM.

With `COc1ccc(C(C)Nc2cccc(-c3cc(C)c(C(=O)N[C@@H](C)C(=O)O)c(C)c3)c2)cc1C` (stereo partly drawn) [Example 30, (S)-2-({3′-[1-(4-Methoxy-3-methyl-phenyl)-ethylamino]-3,5-dimethyl-biphenyl-4-carbonyl}-amino)-propionic acid], the IC50 was 2 nM.

As to `COc1ccc(C(C)Nc2cccc(-c3cc(C)c(C(=O)N[C@@H](C)C(=O)O)c(C)c3)c2)cc1C(F)(F)F` (stereo partly drawn) [Example 33, (S)-2-({3′-[1-(4-Methoxy-3-trifluoromethyl-phenyl)-ethylamino]-3,5-dimethyl-biphenyl-4-carbonyl}-amino)-propionic acid], the IC50 is 1 nM.

`COc1c(F)cc(C(C)Nc2cccc(-c3cc(C)c(C(=O)N[C@@H](C)C(=O)O)c(C)c3)c2)cc1F` (stereo partly drawn) [Example 34, (S)-2-({3′-[1-(3,5-Difluoro-4-methoxy-phenyl)-ethylamino]-3,5-dimethyl-biphenyl-4-carbonyl}-amino)-propionic acid]: the IC50 was found to be 3 nM.

As for `COc1ccc(C(C)Nc2cccc(-c3cc(C)c(C(=O)N[C@@H](C)C(=O)O)c(C)c3)c2)c(F)c1` (stereo partly drawn) [Example 35, (S)-2-({3′-[1-(2-Fluoro-4-methoxy-phenyl)-ethylamino]-3,5-dimethyl-biphenyl-4-carbonyl}-amino)-propionic acid], the IC50 was found to be 8 nM.

Turning to `COc1c(F)cc(C(C)Nc2cccc(-c3cc(C)c(C(=O)N[C@@H](C)C(=O)O)c(C)c3)c2)cc1Cl` (stereo partly drawn) [Example 36, (S)-2-({3′-[(3-Chloro-5-fluoro-4-methoxy-phenyl)-ethylamino]-3,5-dimethyl-biphenyl-4-carbonyl}-amino)-propionic acid], the IC50 came out at 2 nM.

Regarding `COc1c(C)cc(C(C)Nc2cccc(-c3cc(C)c(C(=O)N[C@@H](C)C(=O)O)c(C)c3)c2)cc1C` (stereo partly drawn) [Example 37, (S)-2-({3′-[1-(4-Methoxy-3,5-dimethyl-phenyl)-ethylamino]-3,5-dimethyl-biphenyl-4-carbonyl}-amino)-propionic acid], the IC50 turned out to be 2 nM.

In the case of `Cc1cc([C@@H](C)Nc2cccc(-c3ccc(C(=O)N[C@@H](C)C(=O)O)c(C)c3)c2)ccc1Cl` [Example 40, (S)-2-({3′-[(R)-1-(4-Chloro-3-methyl-phenyl)-ethylamino]-3-methyl-biphenyl-4-carbonyl}-amino)-propionic acid], the IC50 was determined as 2 nM.

Consider `CCc1cc(-c2cccc(NC(C)c3ccc(Cl)c(C)c3)c2)ccc1C(=O)N[C@@H](C)C(=O)O` (stereo partly drawn) [Example 42, (S)-2-({3′-[1-(4-Chloro-3-methyl-phenyl)-ethylamino]-3-ethyl-biphenyl-4-carbonyl}-amino)-propionic acid], for which the IC50 came to 3 nM.

For the compound `CCc1cc(-c2cccc(NC(C)c3ccc(Cl)c(C)c3)c2)ccc1C(=O)N(C)[C@@H](C)C(=O)O` (stereo partly drawn) [Example 43, (S)-2-({3′-[1-(4-Chloro-3-methyl-phenyl)-ethylamino]-3-ethyl-biphenyl-4-carbonyl}-methyl-amino)-propionic acid], the IC50 turned out to be 3 nM.

On to `CCc1cc(-c2cccc(NC(C)c3cc(C)c(Cl)c(C)c3)c2)ccc1C(=O)N(C)[C@@H](C)C(=O)O` (stereo partly drawn) [Example 45, (S)-2-({3′-[1-(4-Chloro-3,5-dimethyl-phenyl)-ethylamino]-3-ethyl-biphenyl-4-carbonyl}-methyl-amino)-propionic acid], for which the concentration for half-maximal inhibition (IC50) was determined as 5 nM.

With `Cc1cc(C(C)Nc2cccc(-c3ccc(C(=O)N[C@@H](C)C(=O)O)c(Cl)c3)c2)ccc1Cl` (stereo partly drawn) [Example 46, (S)-2-({3-Chloro-3′-[1-(4-chloro-3-methyl-phenyl)-ethylamino]-biphenyl-4-carbonyl}-amino)-propionic acid], the IC50 was found to be 2 nM.

With `Cc1cc(C(C)Nc2cccc(-c3ccc(C(=O)N(C)[C@@H](C)C(=O)O)c(Cl)c3)c2)ccc1Cl` (stereo partly drawn) [Example 47, (S)-2-({3-Chloro-3′-[1-(4-chloro-3-methyl-phenyl)-ethylamino]-biphenyl-4-carbonyl}-methyl-amino)-propionic acid], the IC50 was 2 nM.

As to `Cc1cc(C(C)Nc2cccc(-c3ccc(C(=O)N(C)[C@@H](C)C(=O)O)c(F)c3)c2)ccc1Cl` (stereo partly drawn) [Example 49, (S)-2-({3′-[1-(4-Chloro-3-methyl-phenyl)-ethylamino]-3-fluoro-biphenyl-4-carbonyl}-methyl-amino)-propionic acid], the IC50 was 3 nM.
